Consider 5 compounds from US20230406885A1, “CYCLIC PEPTIDES FOR TRAPPING INTERLEUKIN-1 BETA” (MERCK SHARP & DOHME LLC, priority 2022, published 2023).

*1 amine or outer side, *2 acyl side, *3 side chain or, on linkers, in order; H or OH if unused. Where a SMILES comes first, the peptide text is derived from it. [ ]: non-standard residue; d: D form. Bip(4'-COOH) = N[C@@H](Cc1ccc(-c2ccc(C(=O)O)cc2)cc1)C(=O)O; X1 = CC(=O)N1CCN(c2ccc(C[C@H](N[*:1])C(=O)[*:2])cn2)CC1; 1Nal(3S-Me) = C[C@@H](c1cccc2ccccc12)[C@H](N)C(=O)O; Phe(4-COOH) = N[C@@H](Cc1ccc(C(=O)O)cc1)C(=O)O; h3Pal(5-CN) = N#Cc1cncc(CC[C@H](N)C(=O)O)c1; Pro(4R-NH2) = N[C@H]1CN[C@H](C(=O)O)C1; hTyr = N[C@@H](CCc1ccc(O)cc1)C(=O)O; 4Pal = N[C@@H](Cc1ccncc1)C(=O)O; dNMeA = CN[C@H](C)C(=O)O; Dap = NC[C@H](N)C(=O)O

The test has as its target T1, Recombinant human IL-1β (Homo sapiens, UniProt P01584).
T1 construct: purchased BioLegend 579404
The test can be described thus: IL-6 assay in MRC5 cells: inhibition of IL-1β induced IL-6 secretion (AlphaLISA). The settings on record: inhibition of IL-1β induced IL-6 secretion in MRC5 cells; IL-1β pre-incubated 1 hour with compound; read-out: MRC5 IC50. Format: cell-based. As for the experimental part:
Procedure for IL-6 Assay in MRC5 Cells
The inhibition of IL-1β induced IL-6 secretion was evaluated in MRC5 cells. Recombinant human IL-1β (BioLegend 579404) at 2×EC80 concentration was prepared in seeding medium, EMEM (ATCC 30-2003) with 0.025% BSA (Sigma A9576), 1× penicillin/streptomycin (Gibco 15070-063), 1×NEAA (Gibco 11140-050), 1× GlutaMax (Gibco 35050-061), and 1× sodium pyruvate (Gibco 11360-070). 20 μL of IL-1β was added to a 384-well collagen-coated plate (Corning 354664) and pre-incubated at ambient temperature for 1 hour with 200 nL of compound dispensed using an ECHO 555 liquid handler. Human lung fibroblast MRC5 cells (ATCC CCL-171) were added at a density of 3000 cells/20 μL per well. The cells were prepared by passaging three times in growth medium, EMEM (ATCC 30-2003) with 10% fetal bovine serum (Gibco 16140-071), 1× penicillin/streptomycin (Gibco 15070-063), 1×NEAA (Gibco 11140-050), 1× GlutaMax (Gibco 35050-061), and 1× sodium pyruvate (Gibco 11360-070) in collagen-coated T175 flasks (Greiner 661950) and harvested in seeding medium after 5 minutes of 0.25% trypsin-EDTA (Gibco 25200-056) digestion. The 384-well collagen-coated plate, containing a final volume of 40 μL, was incubated at 37° C., 5% CO2 overnight. 5 μL of the conditioned medium was transferred to a 384-well AlphaLISA plate (PerkinElmer 6005350) for detection of IL-6 using the human AlphaLISA IL-6 kit (PerkinElmer AL223F) as per the manufacturer's protocol. 20 μL of the acceptor bead/biotinylated antibody mix was added to the 384-well AlphaLISA plate and incubated for 1 hour at ambient temperature. The donor bead mix was protected from light and 25 μL was added to the plate and incubated for 30 minutes at ambient temperature. The AlphaLISA plate was read on an EnVision multimode plate reader (Perkin Elmer model 2104) using the AlphaScreen setting (laser exc at 680 nm and emis at 570 nm). Dose response curves and IC50 values were analyzed using a 4-parameter logistic equation in Spotfire software (Tibco, Palo Alto, CA).
(In general: Bead proximity is the source of the signal in Alpha formats.)

T1 sequence (P01584 117-269): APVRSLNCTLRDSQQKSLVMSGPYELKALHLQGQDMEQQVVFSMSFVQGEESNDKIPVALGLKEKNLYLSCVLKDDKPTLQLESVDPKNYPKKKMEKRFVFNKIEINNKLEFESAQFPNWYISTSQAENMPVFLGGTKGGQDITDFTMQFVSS

By IC50 is commonly meant the point on the concentration scale where inhibition reaches its midpoint. Consider `CC(=O)N1CCN(c2ccc(C[C@@H]3NC(=O)[C@H](CCc4cncc(C#N)c4)NC(=O)[C@@H](C)NC(=O)[C@H](CN)NC(=O)[C@H](Cc4ccncc4)NC(=O)[C@H](Cc4ccc(-c5ccc(C(=O)O)cc5)cc4)NC(=O)CNC(=O)[C@@H](C)N(C)C(=O)[C@H](CC(=O)O)NC(=O)[C@H]([C@@H](C)c4cccc5ccccc45)NC(=O)[C@@H]4C[C@@H](N)CN4C(=O)CNC(=O)[C@H](Cc4ccc(C(=O)O)cc4)NC(=O)[C@H](Cc4c[nH]c5ccccc45)NC3=O)cn2)CC1` [Example 1] (cyclo([X1]W[Phe(4-COOH)]G[Pro(4R-NH2)][1Nal(3S-Me)]D[dNMeA]G[Bip(4'-COOH)][4Pal][Dap][dA][h3Pal(5-CN)])), for which the IC50 is 0.0365 nM.

For the compound `CC(=O)N1CCN(c2ccc(C[C@@H]3NC(=O)[C@H](CCc4cncc(C#N)c4)NC(=O)[C@@H](C)NC(=O)[C@H](CC(C)C)NC(=O)[C@H](CCCCN)NC(=O)[C@H](Cc4ccc(-c5ccc(C(=O)O)cc5)cc4)NC(=O)CNC(=O)[C@@H](C)N(C)C(=O)[C@H](CC(=O)O)NC(=O)[C@H]([C@@H](C)c4cccc5ccccc45)NC(=O)[C@@H]4C[C@@H](N)CN4C(=O)CNC(=O)[C@H](Cc4ccc(C(=O)O)cc4)NC(=O)[C@H](Cc4c[nH]c5ccccc45)NC3=O)cn2)CC1` [Example 2] (cyclo([X1]W[Phe(4-COOH)]G[Pro(4R-NH2)][1Nal(3S-Me)]D[dNMeA]G[Bip(4'-COOH)]KL[dA][h3Pal(5-CN)])), the IC50 turned out to be 0.0217 nM.

Turning to `CC(=O)N1CCN(c2ccc(C[C@@H]3NC(=O)[C@H](CCc4ccc(O)cc4)NC(=O)[C@@H](C)NC(=O)[C@H](CC(C)C)NC(=O)[C@H](CCCCN)NC(=O)[C@H](Cc4ccc(-c5ccc(C(=O)O)cc5)cc4)NC(=O)CNC(=O)[C@@H](C)N(C)C(=O)[C@H](CC(=O)O)NC(=O)[C@H]([C@@H](C)c4cccc5ccccc45)NC(=O)[C@@H]4C[C@@H](N)CN4C(=O)CNC(=O)[C@H](Cc4ccc(C(=O)O)cc4)NC(=O)[C@H](Cc4c[nH]c5ccccc45)NC3=O)cn2)CC1` [Example 3] (cyclo([X1]W[Phe(4-COOH)]G[Pro(4R-NH2)][1Nal(3S-Me)]D[dNMeA]G[Bip(4'-COOH)]KL[dA][hTyr])), the IC50 was found to be 0.0599 nM.

For `CC(=O)N1CCN(c2ccc(C[C@@H]3NC(=O)[C@H](CCc4cncc(C#N)c4)NC(=O)[C@@H](C)NC(=O)[C@H](CN)NC(=O)[C@H](Cc4c[nH]c5ccccc45)NC(=O)[C@H](Cc4ccc(-c5ccc(C(=O)O)cc5)cc4)NC(=O)CNC(=O)[C@@H](C)N(C)C(=O)[C@H](CC(=O)O)NC(=O)[C@H]([C@@H](C)c4cccc5ccccc45)NC(=O)[C@@H]4C[C@@H](N)CN4C(=O)CNC(=O)[C@H](Cc4ccc(C(=O)O)cc4)NC(=O)[C@H](Cc4c[nH]c5ccccc45)NC3=O)cn2)CC1` [Example 4] (cyclo([X1]W[Phe(4-COOH)]G[Pro(4R-NH2)][1Nal(3S-Me)]D[dNMeA]G[Bip(4'-COOH)]W[Dap][dA][h3Pal(5-CN)])), the IC50 worked out at 0.0438 nM.

Regarding `CC(=O)N1CCN(c2ccc(C[C@@H]3NC(=O)[C@H](CCc4ccc(O)cc4)NC(=O)[C@@H](C)NC(=O)[C@H](CN)NC(=O)[C@H](Cc4c[nH]c5ccccc45)NC(=O)[C@H](Cc4ccc(-c5ccc(C(=O)O)cc5)cc4)NC(=O)CNC(=O)[C@@H](C)N(C)C(=O)[C@H](CC(=O)O)NC(=O)[C@H]([C@@H](C)c4cccc5ccccc45)NC(=O)[C@@H]4C[C@@H](N)CN4C(=O)CNC(=O)[C@H](Cc4ccc(C(=O)O)cc4)NC(=O)[C@H](Cc4c[nH]c5ccccc45)NC3=O)cn2)CC1` [Example 5] (cyclo([X1]W[Phe(4-COOH)]G[Pro(4R-NH2)][1Nal(3S-Me)]D[dNMeA]G[Bip(4'-COOH)]W[Dap][dA][hTyr])), the IC50 was found to be 0.674 nM.
